Patent US20260174878A1, “IRAK4 DEGRADATION AGENT AND USE THEREOF” (LEADINGTAC PHARMACEUTICAL (SHAOXING) CO., LTD., priority 2022, published 2026)
pIC50: −log10 of the molar value.

Key:
[1] = molecular target: T1, IRAK4 protein in normal human PBMCs (Homo sapiens, UniProt Q9NWZ3); experiment: Degradation of IRAK4 protein in normal human PBMCs (AlphaLISA); assay type: cell-based; settings: 24 h incubation
T1 construct: host or cells: normal human PBMCs
T1 sequence (Q9NWZ3 1-460): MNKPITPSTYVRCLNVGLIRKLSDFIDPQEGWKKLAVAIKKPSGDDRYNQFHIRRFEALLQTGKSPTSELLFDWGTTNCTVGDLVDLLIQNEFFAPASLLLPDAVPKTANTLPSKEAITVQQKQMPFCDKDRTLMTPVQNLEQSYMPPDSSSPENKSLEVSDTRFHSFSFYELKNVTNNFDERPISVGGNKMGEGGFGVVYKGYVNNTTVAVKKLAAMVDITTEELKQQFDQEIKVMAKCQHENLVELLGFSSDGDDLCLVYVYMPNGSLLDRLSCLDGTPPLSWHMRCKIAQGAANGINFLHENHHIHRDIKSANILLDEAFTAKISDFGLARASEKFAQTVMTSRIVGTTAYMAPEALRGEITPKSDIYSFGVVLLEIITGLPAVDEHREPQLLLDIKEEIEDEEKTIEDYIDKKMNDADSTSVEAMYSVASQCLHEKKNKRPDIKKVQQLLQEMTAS
Method: The cryopreserved normal human PBMCs (Milestone, PB010C) were thawed and resuspended in RPMI 1640 medium (Gibco, A1049101) supplemented with 10% fetal bovine serum (Gibco, 10099141), 100 U/mL penicillin, and 100 µg/mL streptomycin (Gibco, 15140122). After 0.95 mL of cells were plated in each well of a 24-well cell culture plate, 50 µL of diluted compound solution was added to corresponding wells with cells, such that the final concentration of the compound fell within the range of 0.01-3000 nM. The final concentration of DMSO was 0.25%. After the compound-treated cell plate was incubated in an incubator at 37° C. with 5% CO2 for 24 h, the cells were collected into 1.5 mL centrifuge tubes and centrifuged at 1000 rpm at 4° C. for 5 min. The cell pellets were washed twice with 1×DPBS. The resuspended cells were lysed with 100 μL of lysis buffer, left to stand on ice for 30 min, and then centrifuged at 14000 g at 4° C. for 10 min. The samples of the cell lysate supernatant after centrifugation were cryopreserved at −80° C. before testing. The cell lysis buffer was a Western and IP cell lysis buffer (Beyotime, P0013) supplemented with 1 mM phenylmethylsulfonyl fluoride and a protease inhibitor cocktail (Beyotime, P1008).
The total protein concentrations of the cell lysate samples were determined using a BCA protein quantification kit (Tiangen, PA115-02).
The prepared PBMC lysate samples were assayed for IRAK4 concentrations using a human IRAK4 AlphaLISA assay kit (PerkinElmer, AL3117C) to determine the degradation effects of the compounds on IRAK4. The method is as follows:
5 μL of each of IRAK4 standard solutions with different concentrations and test samples of cell lysate supernatant were added to a white 384-well plate (PerkinElmer, 6007299), and then 10 μL of 5× anti-IRAK4 […] beads was added to each well (final concentration of 10 μg/mL). The plate was incubated at room temperature for 30 min. Then 10 μL of 5× biotin-labeled anti-IRAK4 antibody was added to each well (final concentration of 1 nM), and the plate was incubated at room temperature for another 60 min. Finally, 25 μL of 2× streptavidin-labeled donor beads was added to each well (final concentration of 40 μg/mL), and the plate was incubated at room temperature for another 30 min. After the incubation was completed, AlphaLISA signal values were measured on a microplate reader EnVision (PerkinElmer, 2105) in the AlphaScreen standard mode. A standard curve was plotted from the AlphaLISA signal values of the IRAK4 standard solutions with different concentrations, and the IRAK4 concentration of each cell lysate supernatant was determined according to the corresponding concentrations on the standard curve for the AlphaLISA signal values of the test samples and by performing corresponding correction on the total protein concentration of each sample obtained by BCA quantification. The degradation rates for the compounds at each concentration were calculated by comparing the IRAK4 concentration with that of the control group. Then non-linear curve fittings for logarithmic concentration-inhibition rate were performed using GraphPad Prism 8, and the DC50 and Dmax values of the compound were obtained.

IRAK4 kinase = molecular target: T2, IRAK4 kinase (Homo sapiens, UniProt Q9NWZ3); experiment: IRAK4 kinase activity test (KinEASE-STK S1 HTRF kit); assay type: biochemical; settings: IRAK4 kinase 2.5 nM, 7 μM adenosine triphosphate, 37° C. 120 min
T2 construct: purchased Carna
T2 sequence (Q9NWZ3 1-460): T1 sequence (Q9NWZ3 1-460)
Method: Then 2.5 nM IRAK4 kinase (Carna), 1 μM biotinylated polypeptide substrate (Cisbio), and 7 μM adenosine triphosphate (Sigma-Aldrich) were sequentially added, and the mixtures were incubated at 37° C. for 120 min. Subsequently, an anti-phosphoserine/threonine antibody (Cisbio) conjugated with a europium element compound and streptavidin conjugated with a modified XL665 (Cisbio) were added to the reaction system to stop the reaction. After 1 h of incubation at room temperature, the fluorescence intensity of each well was measured at the excitation wavelength of 337 nm and the emission wavelengths of 620 nm and 665 nm with a microplate reader EnVision (PerkinElmer) in the HTRF mode, and Ratio values were calculated using the formula: Ratio=(665 nm/620 nm)×10^4. The inhibition rates of the compounds at each concentration were calculated by comparison with the fluorescence intensity ratio of the control group. Then non-linear curve fittings for logarithmic concentration-inhibition rate were performed using GraphPad Prism 7, and the IC50 values of the compounds were obtained.

Structure (SMILES) | DC50 [1] [pM] | Dmax [1] [%] | pIC50 (IRAK4 kinase)
O=C1CCN(c2cc(C(=O)N3CCC4(CCN(C[C@H]5CC[C@H](n6cc(NC(=O)c7cnn8ccc(N9CCOCC9)nc78)c(C(F)F)n6)CC5)CC4)CC3)ccc2Cl)C(=O)N1 [Example 8, N-(1-((1R,4R)-4-((9-(4-chloro-3-(2,4-dioxotetrahydropyrimidin-1(2H)-yl)benzoyl)-3,9-diazaspiro [5.5]undecan-3-yl)methyl)cyclohexyl)-3-(difluoromethyl)-1H-pyrazol-4-yl)-5-morpholinopyrazolo[1,5-a]pyrimidine-3-carboxamide] | 800 | 99.1 | 7.77
CN(CCC1CCN(C(=O)c2ccc(Cl)c(N3CCC(=O)NC3=O)c2)CC1)C[C@H]1CC[C@H](n2cc(NC(=O)c3cnn4ccc(N5CCOCC5)nc34)c(C(F)F)n2)CC1 [Example 9, N-(1-((1R,4R)-4-(((2-(1-(4-chloro-3-(2,4-dioxotetrahydropyrimidin-1(2H)-yl)benzoyl)piperidin-4-yl)ethyl)(methyl)amino)methyl)cyclohexyl)-3-(difluoromethyl)-1H-pyrazol-4-yl)-5-morpholinopyrazolo [1,5-a]pyrimidine-3-carboxamide] | 390 | 98 | 8.33
Cc1ccc(C(=O)N2CCC3(CCC(CN4CCC(n5cc(NC(=O)c6cnn7ccc(N8CCS(=O)(=O)CC8)nc67)c(C(F)F)n5)CC4)CC3)CC2)cc1N1CCC(=O)NC1=O [Example 22, N-(3-(difluoromethyl)-1-(1-((3-(3-(2,4-dioxotetrahydropyrimidin-1(2H)-yl)-4-methylbenzoyl)-3-azaspiro[5.5]undecan-9-yl)methyl)piperidin-4-yl)-1H-pyrazol-4-yl)-5-(1,1-dioxothiomorpholinyl)pyrazolo[1,5-a]pyrimidine-3-carboxamide] | 530 | 98.1 | –
Cc1ccc(C(=O)N2CCC3(CCC(CN4CCC(n5cc(NC(=O)c6cnn7ccc(N8CCC[C@H](N)C8)nc67)c(C(F)F)n5)CC4)CC3)CC2)cc1N1CCC(=O)NC1=O [Example 23, (S)-5-(3-aminopiperidin-1-yl)-N-(3-(difluoromethyl)-1-(1-((3-(3-(2,4-dioxotetrahydropyrimidin-1(2H)-yl)-4-methylbenzoyl)-3-azaspiro[5.5]undecan-9-yl)methyl)piperidin-4-yl)-1H-pyrazol-4-yl)pyrazolo[1,5-a]pyrimidine-3-carboxamide] | 2170 | 99 | –
Cc1ccc(C(=O)N2CCC3(CCC(CN4CCC(n5cc(NC(=O)c6cnn7ccc(N8CC9(COC9)C8)nc67)c(C(F)F)n5)CC4)CC3)CC2)cc1N1CCC(=O)NC1=O [Example 24, N-(3-(difluoromethyl)-1-(1-((3-(3-(2,4-dioxotetrahydropyrimidin-1(2H)-yl)-4-methylbenzoyl)-3-azaspiro[5.5]undecan-9-yl)methyl)piperidin-4-yl)-1H-pyrazol-4-yl)-5-(2-oxa-6-azaspiro[3.3]heptan-6-yl)pyrazolo[1,5-a]pyrimidine-3-carboxamide] | 480 | 96.2 | –
Cc1ccc(C(=O)N2CCC3(CCC(CN4CCC(n5cc(NC(=O)c6cnn7ccc(N8CCC[C@H](O)C8)nc67)c(C(F)F)n5)CC4)CC3)CC2)cc1N1CCC(=O)NC1=O [Example 25, (S)—N-(3-(difluoromethyl)-1-(1-((3-(3-(2,4-dioxotetrahydropyrimidin-1(2H)-yl)-4-methylbenzoyl)-3-azaspiro[5.5]undecan-9-yl)methyl)piperidin-4-yl)-1H-pyrazol-4-yl)-5-(3-hydroxypiperidin-1-yl)pyrazolo [1,5-a]pyrimidine-3-carboxamide] | 320 | 97.5 | –
O=C1CCN(c2cc(C(=O)N3CCC4(CCC(CN5CCC(n6cc(NC(=O)c7cnn8ccc(N9CCC[C@H](O)C9)nc78)c(C(F)F)n6)CC5)CC4)CC3)ccc2Cl)C(=O)N1 [Example 26, (S)—N-(1-(1-((3-(4-chloro-3-(2,4-dioxotetrahydropyrimidin-1(2H)-yl)benzoyl)-3-azaspiro[5.5]undecan-9-yl)methyl)piperidin-4-yl)-3-(difluoromethyl)-1H-pyrazol-4-yl)-5-(3-hydroxypiperidin-1-yl)pyrazolo[1,5-a]pyrimidine-3-carboxamide] | 350 | 97.8 | –
COc1ccc(C(=O)N2CCC3(CCN(CCCN4CCC(n5cc(NC(=O)c6cnn7ccc(N8CCOCC8)nc67)c(C(F)F)n5)CC4)CC3)CC2)cc1N1CCC(=O)NC1=O [Example 28, N-(3-(difluoromethyl)-1-(1-(3-(9-(3-(2,4-dioxotetrahydropyrimidin-1(2H)-yl)-4-methoxybenzoyl)-3,9-diazaspiro[5.5]undecan-3-yl)propyl)piperidin-4-yl)-1H-pyrazol-4-yl)-5-morpholinopyrazolo[1,5-a]pyrimidine-3-carboxamide] | 4730 | 107 | –
O=C1CCN(c2cc(C(=O)N3CCC4(CCC(CN5CCC(n6cc(NC(=O)c7cnn8ccc(N9CCS(=O)(=O)CC9)nc78)c(C(F)F)n6)CC5)CC4)CC3)ccc2Cl)C(=O)N1 [Example 29, N-(1-(1-((3-(4-chloro-3-(2,4-dioxotetrahydropyrimidin-1(2H)-yl)benzoyl)-3-azaspiro[5.5]undecan-9-yl)methyl)piperidin-4-yl)-3-(difluoromethyl)-1H-pyrazol-4-yl)-5-(1,1-dioxothiomorpholinyl) pyrazolo[1,5-a]pyrimidine-3-carboxamide] | 530 | 98.2 | –
N[C@H]1CCCN(c2ccn3ncc(C(=O)Nc4cn(C5CCN(CC6CCC7(CC6)CCN(C(=O)c6ccc(Cl)c(N8CCC(=O)NC8=O)c6)CC7)CC5)nc4C(F)F)c3n2)C1 [Example 30, (S)-5-(3-aminopiperidin-1-yl)-N-(1-(1-((3-(4-chloro-3-(2,4-dioxotetrahydropyrimidin-1(2H)-yl)benzoyl)-3-azaspiro[5.5]undecan-9-yl)methyl)piperidin-4-yl)-3-(difluoromethyl)-1H-pyrazol-4-yl)pyrazolo [1,5-a]pyrimidine-3-carboxamide] | 1000 | 100 | –
O=C1CCN(c2cc(C(=O)N3CCC(OCCCN4CCC(n5cc(NC(=O)c6cnn7ccc(N8C[C@H]9C[C@@H]8CO9)nc67)c(C(F)F)n5)CC4)CC3)ccc2Cl)C(=O)N1 [Example 31, 5-((1R,4R)-2-oxa-5-azabicyclo[2.2.1]heptan-5-yl)-N-(1-(1-(3-((1-(4-chloro-3-(2,4-dioxotetrahydropyrimidin-1(2H)-yl)benzoyl)piperidin-4-yl)oxy)propyl)piperidin-4-yl)-3-(difluoromethyl)-1H-pyrazol-4-yl)pyrazolo[1,5-a]pyrimidine-3-carboxamide] | 840 | 99.2 | –
